Measured values reported in paper PMC5433425 (PeerJ, 2017).
“And” between values parts separate entries of the source, which are not always exact repeats. Equal entries are not always repeated. Where two headings read alike, the source gives them in different places. Peptide text beside a SMILES is read from it. * marks the point of attachment. βNA = c1ccc2cc(N*)ccc2c1

Legend:
E. coli AG100A = test: microbe, parasite or virus in culture; format: cell-based, Escherichia coli; conditions: for MIC: Escherichia coli, AG100A
Procedure: The minimum inhibitory concentrations (MICs) were determined using the broth microdilution method according to the CLSI guidelines ([Clinical and Laboratory Standards Institute, 2014]). […] Two-fold serial dilutions of the compounds were made to achieve the following concentrations: 320 µM–40 µM. The MICs were determined as the lowest concentration at which no visible growth was observed after 18 h of incubation at 37 °C. The assays were performed in triplicate and the MIC value was given as result of at least two concordant values.

[1] = test system: E. coli AG100tet (AcrAB overexpressing); test: MIC, broth microdilution; format: cell-based, Escherichia coli; conditions: Escherichia coli
E. coli AG100 = test: EtBr accumulation by real-time fluorometry; conditions: EtBr 1 µg/ml + inhibitor 80 µM
E. coli AG100tet = test: EtBr efflux by real-time fluorometry; conditions: 80 µM
Procedure: Control tubes with only cells and cells with and without 0.4% glucose were included. The fluorescence was measured in a Rotor-Gene 3000 and the data was acquired every 30 s for 30 min at 37 °C. The efflux activity was quantified by comparing the fluorescence data obtained under conditions that promote efflux (presence of glucose and absence of efflux inhibitor) with the data from the control in which the bacteria are under conditions of no efflux (presence of an inhibitor and no energy source).

NC(N)=NCCC[C@H](NC(=O)[C@@H](N)Cc1ccccc1)C(=O)Nc1ccc2ccccc2c1 [PAβN] (H-Phe-Arg-βNA)
effect on OFX and EtBr MICs (E. coli AG100A; AG100A (pump-deficient strain)): no effect | reduction in OXA MIC (E. coli AG100A; AG100A (pump-deficient strain)): 4 fold | reduction in TET MIC (E. coli AG100A; AG100A (pump-deficient strain)): 16 fold | MIC (E. coli AG100A; read-out: MIC of EtBr in presence of the efflux inhibitor): 3.12 µg/mL | MIC (E. coli AG100A; read-out: MIC of OFX in presence of the efflux inhibitor): 0.03 µg/mL | MIC (E. coli AG100A; read-out: MIC of OXA in presence of the efflux inhibitor): 0.25 µg/mL | MIC (E. coli AG100A; read-out: MIC of TET in presence of the efflux inhibitor): 0.03 µg/mL | MIC [1]: > 200 µg/mL and > 385 µM | EtBr fluorescence (E. coli AG100; cycle 1): 5.077 | EtBr fluorescence (E. coli AG100; cycle 2): 5.498 | EtBr fluorescence (E. coli AG100; cycle 3): 5.692 | EtBr fluorescence (E. coli AG100; cycle 4): 6.095 | EtBr fluorescence (E. coli AG100; cycle 5): 6.2405 | EtBr fluorescence (E. coli AG100; cycle 6): 6.476 | EtBr fluorescence (E. coli AG100; cycle 7): 6.738 | EtBr fluorescence (E. coli AG100; cycle 8): 6.948 | EtBr fluorescence (E. coli AG100; cycle 9): 7.121 | EtBr fluorescence (E. coli AG100; cycle 10): 7.401 | EtBr fluorescence (E. coli AG100; cycle 11): 7.525 | EtBr fluorescence (E. coli AG100; cycle 12): 7.725 | EtBr fluorescence (E. coli AG100; cycle 13): 8.024 | EtBr fluorescence (E. coli AG100; cycle 14): 8.041 | EtBr fluorescence (E. coli AG100; cycle 15): 8.277 | EtBr fluorescence (E. coli AG100; cycle 16): 8.537 | EtBr fluorescence (E. coli AG100; cycle 17): 8.7426 | EtBr fluorescence (E. coli AG100; cycle 18): 8.8367 | EtBr fluorescence (E. coli AG100; cycle 19): 8.945 | EtBr fluorescence (E. coli AG100; cycle 20): 9.137 | EtBr fluorescence (E. coli AG100; cycle 21): 9.31 | EtBr fluorescence (E. coli AG100; cycle 22): 9.534 | EtBr fluorescence (E. coli AG100; cycle 23): 9.8 | EtBr fluorescence (E. coli AG100; cycle 24): 9.927 | EtBr fluorescence (E. coli AG100; cycle 25): 10.0486 | EtBr fluorescence (E. coli AG100; cycle 26): 10.1364 | EtBr fluorescence (E. coli AG100; cycle 27): 10.3331 | EtBr fluorescence (E. coli AG100; cycle 28): 10.5844 | EtBr fluorescence (E. coli AG100; cycle 29): 10.7732 | EtBr fluorescence (E. coli AG100; cycle 30): 11.0863 | Fluorescence raw data, Channel Cycling A.530/585hp (E. coli AG100tet; cycle 1, + glucose): 2.731 | Fluorescence raw data, Channel Cycling A.530/585hp (E. coli AG100tet; cycle 1, without glucose): 3.207 | Fluorescence raw data, Channel Cycling A.530/585hp (E. coli AG100tet; cycle 2, + glucose): 2.53 | Fluorescence raw data, Channel Cycling A.530/585hp (E. coli AG100tet; cycle 2, without glucose): 3.035 | Fluorescence raw data, Channel Cycling A.530/585hp (E. coli AG100tet; cycle 3, + glucose): 2.342 | Fluorescence raw data, Channel Cycling A.530/585hp (E. coli AG100tet; cycle 3, without glucose): 2.872 | Fluorescence raw data, Channel Cycling A.530/585hp (E. coli AG100tet; cycle 4, without glucose): 2.787 | Fluorescence raw data, Channel Cycling A.530/585hp (E. coli AG100tet; cycle 5, without glucose): 2.697 | Fluorescence raw data, Channel Cycling A.530/585hp (E. coli AG100tet; cycle 6, without glucose): 2.616 | Fluorescence raw data, Channel Cycling A.530/585hp (E. coli AG100tet; cycle 7, without glucose): 2.625 | Fluorescence raw data, Channel Cycling A.530/585hp (E. coli AG100tet; cycle 8, without glucose): 2.608 | Fluorescence raw data, Channel Cycling A.530/585hp (E. coli AG100tet; cycle 9, + glucose): 1.745 | Fluorescence raw data, Channel Cycling A.530/585hp (E. coli AG100tet; cycle 9, without glucose): 2.567 | Fluorescence raw data, Channel Cycling A.530/585hp (E. coli AG100tet; cycle 10, + glucose): 1.7497 | Fluorescence raw data, Channel Cycling A.530/585hp (E. coli AG100tet; cycle 10, without glucose): 2.517 | Fluorescence raw data, Channel Cycling A.530/585hp (E. coli AG100tet; cycle 11, + glucose): 1.716 | Fluorescence raw data, Channel Cycling A.530/585hp (E. coli AG100tet; cycle 11, without glucose): 2.463 | Fluorescence raw data, Channel Cycling A.530/585hp (E. coli AG100tet; cycle 12, + glucose): 1.744 | Fluorescence raw data, Channel Cycling A.530/585hp (E. coli AG100tet; cycle 12, without glucose): 2.462 | Fluorescence raw data, Channel Cycling A.530/585hp (E. coli AG100tet; cycle 13, + glucose): 1.706 | Fluorescence raw data, Channel Cycling A.530/585hp (E. coli AG100tet; cycle 13, without glucose): 2.458 | Fluorescence raw data, Channel Cycling A.530/585hp (E. coli AG100tet; cycle 14, + glucose): 1.697 | Fluorescence raw data, Channel Cycling A.530/585hp (E. coli AG100tet; cycle 14, without glucose): 2.431 | Fluorescence raw data, Channel Cycling A.530/585hp (E. coli AG100tet; cycle 15, + glucose): 1.701 | Fluorescence raw data, Channel Cycling A.530/585hp (E. coli AG100tet; cycle 15, without glucose): 2.375 | Fluorescence raw data, Channel Cycling A.530/585hp (E. coli AG100tet; cycle 16, + glucose): 1.676 | Fluorescence raw data, Channel Cycling A.530/585hp (E. coli AG100tet; cycle 16, without glucose): 2.373 | Fluorescence raw data, Channel Cycling A.530/585hp (E. coli AG100tet; cycle 17, + glucose): 1.744 | Fluorescence raw data, Channel Cycling A.530/585hp (E. coli AG100tet; cycle 17, without glucose): 2.339 | Fluorescence raw data, Channel Cycling A.530/585hp (E. coli AG100tet; cycle 18, + glucose): 1.635 | Fluorescence raw data, Channel Cycling A.530/585hp (E. coli AG100tet; cycle 18, without glucose): 2.379
